Reference: ChEMBL document CHEMBL1149553, “Bicyclo[2.2.2]octanes: close structural mimics of the nuclear receptor-binding motif of steroid receptor coactivators” (Bioorg Med Chem Lett, 2007)

Biological target: T1, Estrogen receptor (Homo sapiens, UniProt P03372)
T1 sequence (P03372 whole entry): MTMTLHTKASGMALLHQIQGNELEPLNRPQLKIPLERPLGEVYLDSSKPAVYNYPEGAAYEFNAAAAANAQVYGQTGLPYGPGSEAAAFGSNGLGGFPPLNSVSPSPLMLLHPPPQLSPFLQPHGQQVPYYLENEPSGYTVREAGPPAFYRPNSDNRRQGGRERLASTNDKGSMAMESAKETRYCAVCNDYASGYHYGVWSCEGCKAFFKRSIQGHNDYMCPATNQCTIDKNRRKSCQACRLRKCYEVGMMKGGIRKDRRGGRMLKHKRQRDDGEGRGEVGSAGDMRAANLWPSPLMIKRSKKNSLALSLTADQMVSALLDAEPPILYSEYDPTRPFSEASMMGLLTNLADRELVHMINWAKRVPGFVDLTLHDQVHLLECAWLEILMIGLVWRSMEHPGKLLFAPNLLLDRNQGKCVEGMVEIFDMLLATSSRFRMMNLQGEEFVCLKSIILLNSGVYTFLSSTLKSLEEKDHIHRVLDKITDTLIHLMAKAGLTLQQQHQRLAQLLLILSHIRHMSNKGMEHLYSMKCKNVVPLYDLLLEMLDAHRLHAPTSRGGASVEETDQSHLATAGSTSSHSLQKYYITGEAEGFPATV
Assay: Displacement of iodoacetamide-fluorescein-labeled SRC3 from ERalpha by TR-FRET assay

Ki [µM] | Compound
32 | COC(=O)C(N)CC1(C)CC2CCC1CC2C(C)(C)CCNC(=O)CCC(C)C (stereo unspecified)
38 | COC(=O)C(CC1(C)CC2CCC1CC2C(C)(C)CCNC(=O)CCC(C)C)NC(=O)OCc1ccccc1 (stereo unspecified)
0.19 | CC[C@H](C)[C@H](NC(=O)[C@H](CCCCN)NC(=O)[C@H](Cc1c[nH]cn1)NC(=O)[C@H](CCCNC(=N)N)NC(=O)[C@H](CCC(=O)O)NC(=O)[C@@H](NC(=O)[C@@H](N)CC(C)C)[C@@H](C)O)C(=O)N[C@@H](CC(C)C)C(=O)N[C@@H](Cc1c[nH]cn1)C(=O)N[C@@H](CCCNC(=N)N)C(=O)N[C@@H](CC(C)C)C(=O)N[C@@H](CC(C)C)C(=O)N[C@@H](CCC(N)=O)C(=O)N[C@@H](CCC(=O)O)C(=O)NCC(=O)N[C@@H](CO)C(=O)N1CCC[C@H]1C(=O)N[C@@H](CO)C(=O)N[C@@H](CC(=O)O)C(=O)O
7.9 | COC(=O)C(=CC1(C)CC2C=CC1CC2C(C)(C)CCNC(=O)CCC(C)C)C(=O)OC (stereo unspecified)
7.1 | COC(=O)C(CC1(C)CC2CCC1CC2C(C)(C)CCNC(=O)CCC(C)C)C(=O)OC (stereo unspecified)
12 | COC(=O)C(CC1(C)CC2CCC1CC2C(C)(C)CCNC(=O)CCC(C)C)C(=O)O (stereo unspecified)
